In patent US20080234226A1, “Use Of Iron(III) Complex Compounds For The Preparation Of A Medicament For Oral Treatment Of Iron Deficiency States In Patients With Chronic Inflammatory Bowel Disease” (VIFOR (INTERNATIONAL) AG, priority 2005, published 2008):
Where two headings read alike, the source gives them in different places. Marks after values point to notes of the source that are not given here.

Columns and labels:
[1] = tested on: patients with chronic inflammatory bowel disease
Protocol: (§1) Analysis of the blood, urine and stool and the clinical evaluation of the disease were carried out on day 1 and 15.
(§2) The tablets were taken in accordance with the manufacturer's recommendations. Patient compliance was defined as the consumption of the tablets handed out, 80% being regarded as satisfactory.
(§3) Blood samples were taken, after fasting during the night, on the morning of day 1 and day 15.
The values were analysed using the Wilcoxon test for pair differences, and the median and range are stated. The comparison of ratios was evaluated with the Fisher Exact test. […] The data were analysed using the GraphPad Prism 4 for Windows statistics software package (GraphPad Software, Inc., San Diego, USA).

[2] = tested on: patients with chronic inflammatory bowel disease; assay: Markers of oxidative stress (plasma, urine) before and after 14 days oral iron therapy; conditions: for U-8-iso-PGF2α: urine
Protocol: as §1, §2, §3
Urine samples were collected on the morning of day 1 and day 15 and analysed for creatinine. Butyl-hydroxy-toluene (BHT) was added to 2 ml urine to a final concentration of 20 mM. The samples were then stored at −80° C. until analysed for urine 8-isoprostaglandin F2α (8-iso-PGF2α).
The values were analysed using the Wilcoxon test for pair differences, and the median and range are stated. The comparison of ratios was evaluated with the Fisher Exact test. P values of less than 0.05 are considered to be statistically significant. The data were analysed using the GraphPad Prism 4 for Windows statistics software package (GraphPad Software, Inc., San Diego, USA).

[3] = tested on: patients with chronic inflammatory bowel disease; assay: Clinical disease activity, symptoms, compliance and tolerability during oral iron therapy; assay type: in vivo, human; conditions: for total number of defecations per week: median (range)
Protocol: The status of the clinical disease was recorded before (day 1) and after (day 15) the iron therapy. The clinical disease activity was evaluated in patients with Crohn's disease with the “Harvey-Bradshaw Simple Index of Crohn's Disease Activity” (Harvey, R F., Bradshaw, J M., Lancet, 1980; 1:514). The Harvey-Bradshaw Simple Index is based on 5 parameters: general well-being, abdominal pain, stool frequency, abdominal mass and extraintestinal complications. The maximum score is 25 and scores of ≧5 indicate active Crohn's disease.
In patients with colitis ulcerosa, the “Simple Clinical Colitis Activity Index” was recorded (Walmsley, R S., Ayres, R C., Pounder, R E., Allan, R N., Gut 1998; 43; 29-32). The Simple Clinical Colitis Activity Index is based on 6 parameters: general well-being, stool frequency during the day and during the night, urgency of defecation, blood in the stool and extraintestinal complications. The maximum score is 20 and values of ≧4 indicate active colitis ulcerosa.
The Harvey-Bradshaw Simple Index and the Simple Clinical Colitis Activity Index are the same in respect of structure and the clinical significance of a given change in the scores. In order to allow the results of patients with Crohn's disease and colitis ulcerosa to be considered together, the activity scores were calculated as the actual score divided by the maximum score.
All the patients completed the particular Crohn's Disease Activity Index (CDAI) diary card (Best, W R., Becktel, J M., Singleton, J W., Kern, F. Jr., Gastroenterology 1976; 70:439-444) in the week before the start of the iron therapy and during the two weeks of iron therapy. The CDAI diary card comprises daily recording of general well-being, abdominal pain and the number of liquid or very soft stools. The total of seven daily records gives a score for each symptom. The higher the score, the more the patient is adversely affected. The medicament was administered during the study for 14 days and the mean for the two weeks is therefore used for the analysis. The patients also documented the occurrence of nausea before and during the iron therapy.
Patients who discontinued treatment with the medicament because of a deterioration in the symptoms were included in the analysis of the clinical disease activity and the symptom scores. Their disease activity scores were increased by two points, and the symptom scores were increased by one point per day.

white mice = conditions: cited from earlier work
[4] = after 14 days oral treatment, mean (SEM)
[5] = mean of differences after vs before 14 days treatment
[6] = serum, after 14 days oral treatment, mean (SEM)
[7] = serum, before treatment, mean (SEM)
[8] = plasma, after 14 days oral treatment, mean (SEM)
[9] = plasma, before treatment, mean (SEM)

iron(III)-polymaltose complex
increase of blood haemoglobin ([1]; 14 days treatment): Neither iron(II) sulfate nor iron(III)-polymaltose complex increased the blood haemoglobin | B-erythrocyte count [1, 4]: 4.7 (0.1) 10^12/l | B-haematocrit [1, 4]: 40 (1) % | B-reticulocyte count [1, 4]: 0.075 (0.008)* 10^12/l | Hypochromic red cells (HYPO) [1, 4]: 10.6 (2.8) % | MCH [1, 4]: 27 (0.7) pg | MCHC [1, 4]: 31.2 (0.3) g/dl | MCV [1, 4]: 85 (1.6) fl | Reticulocyte haemoglobin (CHr) [1, 4]: 29.5 (0.7) pg | B-erythrocyte count ([1]; before treatment, mean (SEM)): 4.7 (0.1) 10^12/l | B-haematocrit ([1]; before treatment, mean (SEM)): 39 (1) % | B-reticulocyte count ([1]; before treatment, mean (SEM)): 0.059 (0.006) 10^12/l | Hypochromic red cells (HYPO) ([1]; before treatment, mean (SEM)): 10.3 (3.0) % | MCH ([1]; before treatment, mean (SEM)): 27 (0.7) pg | MCHC ([1]; before treatment, mean (SEM)): 31.6 (0.3) g/dl | MCV ([1]; before treatment, mean (SEM)): 84 (1.8) fl | Reticulocyte haemoglobin (CHr) ([1]; before treatment, mean (SEM)): 29.1 (0.8) pg | B-haemoglobin ([1]; blood, after 14 days oral treatment, mean (SEM)): 12.5 (0.3) g/dl | B-haemoglobin ([1]; blood, before treatment, mean (SEM)): 12.5 (0.3) g/dl | B-ESR ([1]; in vivo): 22 (3) mm/h | B-leukocyte count ([1]; in vivo): 6.9 (0.6) 10^9/l | B-platelet count ([1]; in vivo): 347 (18) 10^9/l | S-CRP ([1]; in vivo): 12 (3) mg/l | B-ESR ([1]; in vivo, po): 20 (3)* mm/h | B-leukocyte count ([1]; in vivo, po): 7.0 (0.7) 10^9/l | B-platelet count ([1]; in vivo, po): 343 (21) 10^9/l | S-CRP ([1]; in vivo, po): 11 (2) mg/l | increase in blood reticulocyte count [1, 5]: 1.6e+10 L⁻¹ | S-ferritin [1, 6]: 13 (2) μg/l | S-iron [1, 6]: 8.9 (1.5) μmol/l | S-soluble transferrin receptor [1, 6]: 2.03 (0.21) mg/l | S-total iron binding capacity [1, 6]: 77 (2) μmol/l | S-ferritin [1, 7]: 13 (2) μg/l | S-iron [1, 7]: 8.8 (0.8) μmol/l | S-soluble transferrin receptor [1, 7]: 2.08 (0.24) mg/l | S-total iron binding capacity [1, 7]: 77 (2) μmol/l | P-beta-carotene ([2]; in vivo): 0.59 (0.13) μmol/l | P-cysteinyl-glycine ([2]; in vivo): 18.7 (0.9) μmol/l | P-glutathione ([2]; in vivo): 5.22 (0.30) μmol/l | P-homocysteine ([2]; in vivo): 6.53 (1.16) μmol/l | P-malondialdehyde ([2]; in vivo): 275 (21) nmol/l | P-vitamin A ([2]; in vivo): 1.6 (0.1) μmol/l | P-vitamin E ([2]; in vivo): 29.3 (1.6) μmol/l | change in plasma MDA values ([2]; in vivo): did not significantly change | change in urine iso-PGF2α values ([2]; in vivo): did not significantly change | P-beta-carotene ([2]; in vivo, po): 0.57 (0.09) μmol/l | P-cysteinyl-glycine ([2]; in vivo, po): 18.5 (1.1) μmol/l | P-glutathione ([2]; in vivo, po): 5.43 (0.43) μmol/l | P-homocysteine ([2]; in vivo, po): 6.04 (0.94) μmol/l | P-malondialdehyde ([2]; in vivo, po): 300 (19) nmol/l | P-vitamin A ([2]; in vivo, po): 1.9 (0.3) μmol/l | P-vitamin E ([2]; in vivo, po): 28.3 (1.7) μmol/l | Increased nausea reported ([3]; human, in vivo): 7/20 | change of clinical disease activity indices ([3]; human, in vivo): Neither the treatment with iron(II) sulfate (p=0.45) nor the treatment with iron(III)-polymaltose complex (p=0.80) substantially changed the clinical disease activity indices | influence on general wellbeing or abdominal pain score ([3]; human, in vivo): Neither iron(II) sulfate nor iron(III)-polymaltose complex had an influence | patients who discontinued the treatment (intolerable bowel movements, abdominal pain and nausea) ([3]; human, in vivo): one patient | tolerability of the iron therapy ([3]; human, in vivo): good tolerability

O=S(=O)([O-])[O-].[Fe+2] [Iron(II) sulfate, iron(II) sulfate]
B-ESR ([1]; in vivo): 11 (2) mm/h | B-erythrocyte count ([1]; in vivo): 4.8 (0.1) 10^12/l | B-haematocrit ([1]; in vivo): 41 (1) % | B-haemoglobin ([1]; in vivo): 13.1 (0.4) g/dl | B-leukocyte count ([1]; in vivo): 6.5 (0.5) 10^9/l | B-platelet count ([1]; in vivo): 324 (23) 10^9/l | B-reticulocyte count ([1]; in vivo): 0.068 (0.006) 10^12/l | Hypochromic red cells (HYPO) ([1]; in vivo): 10.4 (3.6) % | MCH ([1]; in vivo): 27 (0.8) pg | MCHC ([1]; in vivo): 31.8 (0.4) g/dl | MCV ([1]; in vivo): 86 (1.6) fl | Reticulocyte haemoglobin (CHr) ([1]; in vivo): 29.3 (0.8) pg | S-CRP ([1]; in vivo): 7 (2) mg/l | S-ferritin ([1]; in vivo): 13 (2) μg/l | S-iron ([1]; in vivo): 11.1 (2.0) μmol/l | S-total iron binding capacity ([1]; in vivo): 81 (2) μmol/l | decrease in the hypochromic red cells ([1]; in vivo): −2.5% | decrease in the serum total iron binding capacity ([1]; in vivo): -7 µmol/L | increase in blood reticulocyte count ([1]; in vivo): 1.6e+10 L⁻¹ | increase in s-ferritin ([1]; in vivo): 12 µg/L | increase in the reticulocyte haemoglobin ([1]; in vivo): 1.9 pg | increase of blood haemoglobin ([1]; in vivo): Neither iron(II) sulfate nor iron(III)-polymaltose complex increased the blood haemoglobin | B-ESR ([1]; in vivo, po): 10 (2) mm/h | B-erythrocyte count ([1]; in vivo, po): 4.8 (0.1) 10^12/l | B-haematocrit ([1]; in vivo, po): 42 (1)* % | B-haemoglobin ([1]; in vivo, po): 13.3 (0.3) g/dl | B-leukocyte count ([1]; in vivo, po): 6.3 (0.4) 10^9/l | B-platelet count ([1]; in vivo, po): 306 (21) 10^9/l | B-reticulocyte count ([1]; in vivo, po): 0.084 (0.007) 10^12/l | Hypochromic red cells (HYPO) ([1]; in vivo, po): 8.8 (3.2)* % | MCH ([1]; in vivo, po): 28 (0.8)*# pg | MCHC ([1]; in vivo, po): 32.0 (0.3) g/dl | MCV ([1]; in vivo, po): 87 (1.3)* fl | Reticulocyte haemoglobin (CHr) ([1]; in vivo, po): 31.1 (0.7)* pg | S-CRP ([1]; in vivo, po): 6 (2) mg/l | S-ferritin ([1]; in vivo, po): 25 (3)*# μg/l | S-iron ([1]; in vivo, po): 14.2 (2.2) μmol/l | S-total iron binding capacity ([1]; in vivo, po): 74 (2)*# μmol/l | change in plasma MDA values [2, 5]: 95 nmol/L | change in urine iso-PGF2α values [2, 5]: 194 pg/mg creatinine | P-malondialdehyde ([2]; plasma, after 14 days oral treatment (day 15), mean (SEM)): 395 (25)* nmol/l | P-beta-carotene [2, 8]: 0.67 (0.10) μmol/l | P-cysteine [2, 8]: 199 (13) μmol/l | P-cysteinyl-glycine [2, 8]: 16.6 (1.2) μmol/l | P-glutathione [2, 8]: 5.08 (0.54) μmol/l | P-homocysteine [2, 8]: 4.58 (0.47) μmol/l | P-vitamin A [2, 8]: 1.8 (0.2) μmol/l | P-vitamin C [2, 8]: 58.6 (5.4) μmol/l | P-vitamin E [2, 8]: 29.3 (1.5) μmol/l | P-malondialdehyde ([2]; plasma, before treatment (day 1), mean (SEM)): 294 (25) nmol/l | P-beta-carotene [2, 9]: 0.67 (0.09) μmol/l | P-cysteine [2, 9]: 203 (11) μmol/l | P-cysteinyl-glycine [2, 9]: 16.7 (1.1) μmol/l | P-glutathione [2, 9]: 5.05 (0.48) μmol/l | P-homocysteine [2, 9]: 4.87 (0.59) μmol/l | P-vitamin A [2, 9]: 1.7 (0.2) μmol/l | P-vitamin C [2, 9]: 60.9 (6.0) μmol/l | P-vitamin E [2, 9]: 30.2 (1.8) μmol/l | U-8-iso-PGF2α ([2]; after 14 days oral treatment (day 15), mean (SEM)): 629 (124) pg/mg creatinine | U-8-iso-PGF2α ([2]; before treatment (day 1), mean (SEM)): 417 (46) pg/mg creatinine | influence on general wellbeing or abdominal pain score ([3]; CDAI diary card): Neither iron(II) sulfate nor iron(III)-polymaltose complex had an influence | total number of defecations per week ([3]; before treatment): 19 (7-106) | change of clinical disease activity indices ([3]; day 15 vs day 1): Neither the treatment with iron(II) sulfate (p=0.45) nor the treatment with iron(III)-polymaltose complex (p=0.80) substantially changed the clinical disease activity indices | total number of defecations per week ([3]; during the treatment): 24 (7-55) | patients who discontinued the treatment (intolerable bowel movements, abdominal pain and nausea) ([3]; of n=21 iron(II) sulfate, n=20 iron(III)-polymaltose complex): Three patients | Increased nausea reported ([3]; patients reporting / patients treated): 9/21 | LD50 (white mice): 230 mg iron/kg
